pEC50: −log10 of the molar value. Where a name gives a salt, the structure may show the parent alone.
Biological target: Glycogen synthase kinase-3 beta (Homo sapiens, UniProt P49841)
Experiment: GSK3beta kinase inhibitor potency, dose response, biochemical, luminescence, cell-free homogeneous, retest (AID 434954)

Chain of Glycogen synthase kinase-3 beta (P49841 whole entry): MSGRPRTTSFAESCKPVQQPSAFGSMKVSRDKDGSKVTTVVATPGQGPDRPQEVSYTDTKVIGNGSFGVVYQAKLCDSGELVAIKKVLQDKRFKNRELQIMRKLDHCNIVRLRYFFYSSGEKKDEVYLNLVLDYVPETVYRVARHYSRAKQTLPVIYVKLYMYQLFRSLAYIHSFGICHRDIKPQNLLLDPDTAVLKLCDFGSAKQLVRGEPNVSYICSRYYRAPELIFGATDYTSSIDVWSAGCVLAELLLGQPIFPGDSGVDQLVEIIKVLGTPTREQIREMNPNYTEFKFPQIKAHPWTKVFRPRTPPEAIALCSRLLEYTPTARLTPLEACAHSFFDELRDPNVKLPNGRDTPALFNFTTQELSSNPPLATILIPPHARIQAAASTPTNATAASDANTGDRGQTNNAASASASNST

| SMILES | pEC50 |
| --- | --- |
| CCCN(CCC)Cc1c(C(=O)NN=Cc2ccoc2)nnn1-c1nonc1N [1-(4-amino-1,2,5-oxadiazol-3-yl)-5-[(dipropylamino)methyl]-N-(3-furanylmethylideneamino)-4-triazolecarboxamide] | 5.07 |
| CCCN(CCC)Cc1c(C(=O)NN=CCCc2ccccc2)nnn1-c1nonc1N [1-(4-amino-1,2,5-oxadiazol-3-yl)-5-[(dipropylamino)methyl]-N-(3-phenylpropylideneamino)-4-triazolecarboxamide] | 5.13 |
| CCCN(CCC)Cc1c(C(=O)NN=Cc2ccncc2)nnn1-c1nonc1N [1-(4-amino-1,2,5-oxadiazol-3-yl)-5-[(dipropylamino)methyl]-N-(pyridin-4-ylmethylideneamino)triazole-4-carboxamide] | 6.06 |
| COC(=O)c1nnn(-c2nonc2N)c1CSc1nnc(N)s1 [1-(4-amino-1,2,5-oxadiazol-3-yl)-5-[[(5-amino-1,3,4-thiadiazol-2-yl)thio]methyl]-4-triazolecarboxylic acid methyl ester] | 4.40 |
| Cc1c(C(=O)NN=Cc2ccccn2)nnn1-c1nonc1N [1-(4-amino-1,2,5-oxadiazol-3-yl)-5-methyl-N-(pyridin-2-ylmethylideneamino)triazole-4-carboxamide] | < 3.52 |
| CCOC(=O)c1nnn(-c2nonc2N)c1-c1cccs1 [1-(4-amino-1,2,5-oxadiazol-3-yl)-5-thiophen-2-yl-4-triazolecarboxylic acid ethyl ester] | 4.93 |
| COC(=O)c1nnn(-c2nonc2N)c1-c1cccs1 [1-(4-amino-1,2,5-oxadiazol-3-yl)-5-thiophen-2-yl-4-triazolecarboxylic acid methyl ester] | 4.58 |
| Nc1nonc1-n1nnc(C(=O)NN=Cc2ccccc2O)c1CN1CCCC1 [1-(4-amino-1,2,5-oxadiazol-3-yl)-N'-[(E)-(6-oxo-1-cyclohexa-2,4-dienylidene)methyl]-5-(1-pyrrolidinylmethyl)-4-triazolecarbohydrazide] | 4.61 |
| CCOc1ccccc1C=NNC(=O)c1nnn(-c2nonc2N)c1CN1CCCC1 [1-(4-amino-1,2,5-oxadiazol-3-yl)-N-[(2-ethoxyphenyl)methylideneamino]-5-(pyrrolidin-1-ylmethyl)triazole-4-carboxamide] | 5.97 |
| COc1ccccc1C=NNC(=O)c1nnn(-c2nonc2N)c1CN(C)c1ccccc1 [1-(4-amino-1,2,5-oxadiazol-3-yl)-N-[(2-methoxyphenyl)methylideneamino]-5-[(N-methylanilino)methyl]triazole-4-carboxamide] | 5.38 |
| CC(C)(C)C(=O)c1sc(Nc2ccccc2)nc1N [1-(4-amino-2-anilino-1,3-thiazol-5-yl)-2,2-dimethyl-1-propanone] | 6.00 |
| CCOc1cccc(-c2c(C(=O)NN=C(C)c3cccs3)nnn2-c2nonc2N)c1 [1-(4-azanyl-1,2,5-oxadiazol-3-yl)-5-(3-ethoxyphenyl)-N-(1-thiophen-2-ylethylideneamino)-1,2,3-triazole-4-carboxamide] | 4.01 |
| Nc1nonc1-n1nnc(C(=O)NN=Cc2ccc(O)cc2)c1CN1CCCCCC1 [1-(4-azanyl-1,2,5-oxadiazol-3-yl)-5-(azepan-1-ylmethyl)-N'-[(4-oxidanylidenecyclohexa-2,5-dien-1-ylidene)methyl]-1,2,3-triazole-4-carbohydrazide] | 5.73 |
| CCCCCOc1ccc(C=NNC(=O)c2nnn(-c3nonc3N)c2CN2CCCCCC2)cc1 [1-(4-azanyl-1,2,5-oxadiazol-3-yl)-5-(azepan-1-ylmethyl)-N-[(4-pentoxyphenyl)methylideneamino]-1,2,3-triazole-4-carboxamide] | 5.01 |
| CCCN(CCC)Cc1c(C(=O)NN=Cc2ccc(C)o2)nnn1-c1nonc1N [1-(4-azanyl-1,2,5-oxadiazol-3-yl)-5-[(dipropylamino)methyl]-N-[(5-methylfuran-2-yl)methylideneamino]-1,2,3-triazole-4-carboxamide] | < 3.52 |
| CCCN(CCC)Cc1c(C(=O)NN=C/C(C)=C\c2ccccc2)nnn1-c1nonc1N [1-(4-azanyl-1,2,5-oxadiazol-3-yl)-5-[(dipropylamino)methyl]-N-[[(Z)-2-methyl-3-phenyl-prop-2-enylidene]amino]-1,2,3-triazole-4-carboxamide] | < 3.52 |
| Nc1nonc1-n1nnc(C(=O)NN=Cc2ccccn2)c1-c1ccccc1 [1-(4-azanyl-1,2,5-oxadiazol-3-yl)-5-phenyl-N-(pyridin-2-ylmethylideneamino)-1,2,3-triazole-4-carboxamide] | 4.18 |
| Nc1nonc1-n1nnc(C(=O)NN=Cc2ccoc2)c1CSc1ccccc1 [1-(4-azanyl-1,2,5-oxadiazol-3-yl)-N-(furan-3-ylmethylideneamino)-5-(phenylsulfanylmethyl)-1,2,3-triazole-4-carboxamide] | < 3.52 |
| Nc1nonc1-n1nnc(C(=O)NN=Cc2ccc(Cl)cc2Cl)c1CN1CCCC1 [1-(4-azanyl-1,2,5-oxadiazol-3-yl)-N-[(2,4-dichlorophenyl)methylideneamino]-5-(pyrrolidin-1-ylmethyl)-1,2,3-triazole-4-carboxamide] | < 3.52 |
| Nc1nonc1-n1nnc(C(=O)NN=Cc2ccccc2F)c1CN1CCOCC1 [1-(4-azanyl-1,2,5-oxadiazol-3-yl)-N-[(2-fluorophenyl)methylideneamino]-5-(morpholin-4-ylmethyl)-1,2,3-triazole-4-carboxamide] | 4.04 |
| Nc1nonc1-n1nnc(C(=O)NN=Cc2cccc(O)c2)c1CN1CCCC1 [1-(4-azanyl-1,2,5-oxadiazol-3-yl)-N-[(3-hydroxyphenyl)methylideneamino]-5-(pyrrolidin-1-ylmethyl)-1,2,3-triazole-4-carboxamide] | 4.89 |

| SMILES | pEC50 |
| --- | --- |
| CCCN(CCC)Cc1c(C(=O)NN=Cc2ccc(Br)cc2)nnn1-c1nonc1N [1-(4-azanyl-1,2,5-oxadiazol-3-yl)-N-[(4-bromophenyl)methylideneamino]-5-[(dipropylamino)methyl]-1,2,3-triazole-4-carboxamide] | < 3.52 |
| Nc1nonc1-n1nnc(C(=O)NN=Cc2c(Cl)cccc2Cl)c1CN1CCOCC1 [1-(4-azanyl-1,2,5-oxadiazol-3-yl)-N-[[2,6-bis(chloranyl)phenyl]methylideneamino]-5-(morpholin-4-ylmethyl)-1,2,3-triazole-4-carboxamide] | 4.26 |
| CN(C)Cc1c(C(=O)NN=Cc2ccccc2OCc2c(F)cccc2Cl)nnn1-c1nonc1N [1-(4-azanyl-1,2,5-oxadiazol-3-yl)-N-[[2-[(2-chloranyl-6-fluoranyl-phenyl)methoxy]phenyl]methylideneamino]-5-[(dimethylamino)methyl]-1,2,3-triazole-4-carboxamide] | 6.94 |
| C/C(C=NNC(=O)c1nnn(-c2nonc2N)c1CN1CCCCC1)=C\c1ccccc1 [1-(4-azanyl-1,2,5-oxadiazol-3-yl)-N-[[(E)-2-methyl-3-phenyl-prop-2-enylidene]amino]-5-(piperidin-1-ylmethyl)-1,2,3-triazole-4-carboxamide] | 4.54 |
| COc1cc(NC(=S)Nc2ccccn2)c(OC)cc1Cl [1-(4-chloranyl-2,5-dimethoxy-phenyl)-3-pyridin-2-yl-thiourea] | 4.91 |
| O=C(Nc1ccc(Cl)cc1)Nc1ccccn1 [1-(4-chlorophenyl)-3-(2-pyridinyl)urea] | 4.36 |
| CCCc1c(NC(=O)Nc2ccc(F)cc2)cnn1-c1ccccc1 [1-(4-fluorophenyl)-3-(1-phenyl-5-propylpyrazol-4-yl)urea] | < 3.52 |
| COc1ccc(N2CC(C(=O)Nc3cc(C)ccn3)CC2=O)cc1 (configuration not stated) [1-(4-methoxyphenyl)-N-(4-methylpyridin-2-yl)-5-oxopyrrolidine-3-carboxamide] | 4.33 |
| COc1ccc2occ(C(C)=O)c2c1 [1-(5-methoxy-3-benzofuranyl)ethanone] | < 3.52 |
| O=C(COc1ccccc1)N1CCN(S(=O)(=O)c2cccs2)CC1 [1-(phenoxyacetyl)-4-(2-thienylsulfonyl)piperazine] | < 3.52 |
| CC(C)N1C(=O)C(=CNCc2cccnc2)C(=O)NC1=S [1-Isopropyl-5-[1-[(pyridin-3-ylmethyl)-amino]-meth-(E)-ylidene]-2-thioxo-dihydro-pyrimidine-4,6-dione] | < 3.52 |
| COc1ccc(-n2c(=O)c3c4c(sc3n3c(=S)[nH]nc23)CCC4)cc1 [1-Mercapto-4-(4-methoxy-phenyl)-7,8-dihydro-4H,6H-9-thia-2,3,4,9b-tetraaza-cyclopenta[b]-as-indace n-5-one] | 4.21 |
| O=C1NC(=O)N(CCc2ccc(F)cc2)C(=O)C1=CNN1CCCCC1 [1-[2-(4-Fluoro-phenyl)-ethyl]-5-[1-(piperidin-1-ylamino)-meth-(Z)-ylidene]-pyrimidine-2,4,6-trione] | < 3.52 |
| CCc1ccc(CNC(=O)C2CCC(=O)N(CCc3ccc(Cl)cc3)C2)nc1 (configuration not stated) [1-[2-(4-chlorophenyl)ethyl]-N-[(5-ethyl-2-pyridinyl)methyl]-6-oxo-3-piperidinecarboxamide] | < 3.52 |
| CC1(C)N=C(N)N=C(N)N1c1ccc(Oc2ccc(Cl)cc2)c(Cl)c1 [1-[3-chloro-4-(4-chlorophenoxy)phenyl]-6,6-dimethyl-1,3,5-triazine-2,4-diamine;hydrochloride] | < 3.52 |
| O=[N+]([O-])c1cc(/C=N/n2cnnc2)ccc1N1CCCC1 [1-[3-nitro-4-(1-pyrrolidinyl)phenyl]-N-(1,2,4-triazol-4-yl)methanimine] | < 3.52 |
| Cc1cc([N+](=O)[O-])c(C)cc1-c1ccc(/C=N/n2cnnc2)o1 [1-[5-(2,5-dimethyl-4-nitrophenyl)furan-2-yl]-N-(1,2,4-triazol-4-yl)methanimine] | < 3.52 |
| CN1CCN(/N=C/c2ccc(-c3ccc([N+](=O)[O-])cc3Cl)o2)CC1 [1-[5-(2-chloro-4-nitrophenyl)-2-furanyl]-N-(4-methyl-1-piperazinyl)methanimine] | < 3.52 |
| NC(=O)C1CCN(C(=O)c2ccc(Oc3cc(Cl)cc(Cl)c3)o2)CC1 [1-[5-[3,5-bis(chloranyl)phenoxy]furan-2-yl]carbonylpiperidine-4-carboxamide] | < 3.52 |
| CSc1nc(C)cc(-n2ccc(=O)[nH]c2=O)n1 [1-[6-methyl-2-(methylthio)-4-pyrimidinyl]pyrimidine-2,4-dione] | 4.59 |
| CCOC(=O)C1(Cc2cccc(F)c2)CCN(Cc2cn(CC)nc2C)CC1 [1-[(1-ethyl-3-methyl-4-pyrazolyl)methyl]-4-[(3-fluorophenyl)methyl]-4-piperidinecarboxylic acid ethyl ester] | < 3.52 |

From BindingDB's records for doi:10.7270/Q2TX3CTT (Broad Institute, 2010)
